Results on nine compounds are retold here after PubChem BioAssay AID1259411 (Chemical Carcinogenesis Research Information System (CCRIS), 2018).

Structures are written as SMILES. Calls of active or inactive are those of the source. No rule for the calls is given here. *1 amine or outer side, *2 acyl side, *3 side chain or, on linkers, in order; H or OH if unused. Where a SMILES comes first, the peptide text is derived from it. Bridges are numbered along the chain shown (N, C = ends). Roman numbers before positions name the chains, in order. [ ]: non-standard residue; d: D form. Actinocin(9to1) = Cc1c2oc3c(C)ccc(C(=O)[*:1])c3nc-2c(C(=O)[*:2])c(N)c1=O; NMeV = CN[C@H](C(=O)O)C(C)C; Sar = CNCC(=O)O

This data set concerns rodent carcinogenicity bioassays, tumor incidence. The data set is described as follows: CCRIS carcinogenicity studies. The method in brief:
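Archive of carcinogenicity, mutagenicity, tumor promotion and tumor inhibition results drawn from journals, NCI reports and other sources, expert-reviewed; covers 1985-2011 and is no longer updated.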

On to `CC=O`, for which the carcinogen call (Species: RAT, Strain/Sex: WISTAR/FEMALE, Route: INHALATION, Dose: 0, 750, 1500, 3000 PPM 6 HR/D 5 D/WK AFTER 4 MO HIGH DOSE REDUCED TO 2150 PPM THEN 1500 PPM AT 6 MO AND 1000 PPM AT 12 M, Dose: 0, 750, 1500, 3000 PPM 6 HR/D 5 D/WK AFTER 4 MO HIGH DOSE REDUCED TO 2150 PPM THEN 1500 PPM AT 6 MO AND 1000 PPM AT 12 M, Tumor Site: Type of Lesion: NASAL CAVITY: TUMOR) is “active; positive” and the carcinogen call (Species: RAT, Strain/Sex: WISTAR/MALE, Route: INHALATION, Dose: 0, 750, 1500, 3000 PPM 6 HR/D 5 D/WK AFTER 4 MO HIGH DOSE REDUCED TO 2150 PPM THEN 1500 PPM AT 6 MO AND 1000 PPM AT 12 M, Dose: 0, 750, 1500, 3000 PPM 6 HR/D 5 D/WK AFTER 4 MO HIGH DOSE REDUCED TO 2150 PPM THEN 1500 PPM AT 6 MO AND 1000 PPM AT 12 M, Tumor Site: Type of Lesion: NASAL CAVITY: TUMOR) is “active; positive”.

On to `Cc1c2oc3c(C)ccc(C(=O)N[C@@H]4C(=O)N[C@H](C(C)C)C(=O)N5CCC[C@H]5C(=O)N(C)CC(=O)N(C)[C@@H](C(C)C)C(=O)O[C@@H]4C)c3nc-2c(C(=O)N[C@@H]2C(=O)N[C@H](C(C)C)C(=O)N3CCC[C@H]3C(=O)N(C)CC(=O)N(C)[C@@H](C(C)C)C(=O)O[C@@H]2C)c(N)c1=O` (I: T[dV]P[Sar][NMeV] / II: T[dV]P[Sar][NMeV]; ester I:1-I:C, II:1-II:C; linker I:N-II:N via Actinocin(9to1)), for which the carcinogen call (Species: RAT, Route: INTRAPERITONEAL, Tumor Site: Type of Lesion: PERITONEAL CAVITY) was “active; positive”.

Consider `NC(=O)N(N)c1ccccc1`, for which the carcinogen call (Species: MOUSE, Route: ORAL, Tumor Site: Type of Lesion: LIVER, LUNG) is “active; positive”.

On to `C[C@H](CCC(=O)N(CCS(=O)(=O)O)N=O)[C@H]1CCC2C3C(C[C@H](O)[C@@]21C)[C@@]1(C)CC[C@@H](O)C[C@H]1C[C@H]3O` (stereo not given in full), for which the carcinogen call (Species: RAT, Strain/Sex: F344/MALE, Route: GAVAGE, Dose: 0, 10 MG IN 50 µL DMSO 5 D/WK FOR 6 WK (STUDY DURATION: 108 WK), Tumor Site: Type of Lesion: LIVER: CARCINOMA) is “active; positive”.

For the compound `COc1cc(S(=O)(=O)O)c(C)cc1N=Nc1c(O)ccc2cc(S(=O)(=O)O)ccc12`, the carcinogen call reads like this: (Species: MOUSE, Strain/Sex: CD-1/FEMALE, Route: ORAL, Dose: 0, 0.37, 1.39, 5.19% IN DIET FOR LIFE TO OFFSPRING OF ANIMALS ADMINISTERED THE SAME DOSES DURING BREEDING, GESTATION AND, Dose: 0, 0.37, 1.39, 5.19% IN DIET FOR LIFE TO OFFSPRING OF ANIMALS ADMINISTERED THE SAME DOSES DURING BREEDING, GESTATION AND) “inactive; negative”; (Species: MOUSE, Strain/Sex: CD-1/MALE, Route: ORAL, Dose: 0, 0.37, 1.39, 5.19% IN DIET FOR LIFE TO OFFSPRING OF ANIMALS ADMINISTERED THE SAME DOSES DURING BREEDING, GESTATION AND, Dose: 0, 0.37, 1.39, 5.19% IN DIET FOR LIFE TO OFFSPRING OF ANIMALS ADMINISTERED THE SAME DOSES DURING BREEDING, GESTATION AND) “inactive; negative”; (Species: MOUSE, Strain/Sex: HAM/ICR/FEMALE, Route: ORAL, Dose: 0, 0.37, 1.39, 5.19% IN DIET FOR LIFE TO OFFSPRING OF ANIMALS ADMINISTERED THE SAME DOSES DURING BREEDING, GESTATION AND, Dose: 0, 0.37, 1.39, 5.19% IN DIET FOR LIFE TO OFFSPRING OF ANIMALS ADMINISTERED THE SAME DOSES DURING BREEDING, GESTATION AND) “inactive; negative”; (Species: MOUSE, Strain/Sex: HAM/ICR/MALE, Route: ORAL, Dose: 0, 0.37, 1.39, 5.19% IN DIET FOR LIFE TO OFFSPRING OF ANIMALS ADMINISTERED THE SAME DOSES DURING BREEDING, GESTATION AND, Dose: 0, 0.37, 1.39, 5.19% IN DIET FOR LIFE TO OFFSPRING OF ANIMALS ADMINISTERED THE SAME DOSES DURING BREEDING, GESTATION AND) “inactive; negative”; (Species: RAT, Strain/Sex: SPRAGUE-DAWLEY/FEMALE, Route: ORAL, Dose: 0, 0.37, 1.39, 5.19% OF DIET BEGINNING WITH PARENTAL GENERATION AND CONTINUING WITH THE OFFSPRING FOLLOWING WEANING (STU, Dose: 0, 0.37, 1.39, 5.19% OF DIET BEGINNING WITH PARENTAL GENERATION AND CONTINUING WITH THE OFFSPRING FOLLOWING WEANING (STU) “inactive; negative”; (Species: RAT, Strain/Sex: SPRAGUE-DAWLEY/MALE, Route: ORAL, Dose: 0, 0.37, 1.39, 5.19% OF DIET BEGINNING WITH PARENTAL GENERATION AND CONTINUING WITH THE PUPS FOLLOWING WEANING (STUDY DU, Dose: 0, 0.37, 1.39, 5.19% OF DIET BEGINNING WITH PARENTAL GENERATION AND CONTINUING WITH THE PUPS FOLLOWING WEANING (STUDY DU) “inactive; negative”.

On to `[2H]c1c([2H])c([2H])c2c(C([2H])([2H])[2H])c3c(c([2H])c([2H])c4c([2H])c([2H])c([2H])c([2H])c43)c(C([2H])([2H])[2H])c2c1[2H]`, for which the carcinogen call reads like this: (Species: MOUSE, Strain/Sex: SWISS/FEMALE, Route: SUBCUTANEOUS, Dose: IN OLIVE OIL 1/MO FOR 3 MO FOR A TOTAL DOSE OF 0, 1.5 MG (STUDY DURATION: 395 D), Tumor Site: Type of Lesion: INJECTION SITE: FIBROBLASTIC SARCOMA) “active; positive”; (Species: MOUSE, Strain/Sex: SWISS/MALE, Route: SUBCUTANEOUS, Dose: IN OLIVE OIL 1/MO FOR 3 MO FOR A TOTAL DOSE OF 0, 1.5 MG (STUDY DURATION: 395 D), Tumor Site: Type of Lesion: INJECTION SITE: FIBROBLASTIC SARCOMA) “active; positive”.

As to `COc1cc(OC)nc(Oc2cccc(Oc3nc(OC)cc(OC)n3)c2C(=O)O)n1`, the carcinogen call was “inactive; negative; purity 98.4%; interim sacrifices of 10 additional animals/sex/dose at” (Species: Mouse, Strain/Sex: B6C3F1/Female (50/sex/dose), Route: Oral, Dose: 0, 10, 100, 2500, 5000 ppm in diet for 104 wk, Dose: 0, 10, 100, 2500, 5000 ppm in diet for 104 wk); “inactive; negative; purity 98.4%; interim sacrifices of 10 additional animals/sex/dose at” (Species: Mouse, Strain/Sex: B6C3F1/Male (50/sex/dose), Route: Oral, Dose: 0, 10, 100, 2500, 5000 ppm in diet for 104 wk, Dose: 0, 10, 100, 2500, 5000 ppm in diet for 104 wk); “inactive; negative; purity 97.2%; interim sacrifices of 10 additional animals/sex/dose at” (Species: Rat, Strain/Sex: F344/Female (48/sex/dose), Route: Oral, Dose: 0, 20, 200, 3000, 10000 ppm in diet for 104 wk, Dose: 0, 20, 200, 3000, 10000 ppm in diet for 104 wk); “inactive; negative; purity 97.2%; interim sacrifices of 10 additional animals/sex/dose at” (Species: Rat, Strain/Sex: F344/Male (48/sex/dose), Route: Oral, Dose: 0, 20, 200, 3500, 7000 ppm in diet for 104 wk, Dose: 0, 20, 200, 3500, 7000 ppm in diet for 104 wk).

As for `Cc1cnc2ccc3c(nc(NO)n3C)c2n1`, the carcinogen call (Species: RAT, Strain/Sex: ACI/SEG/MALE, Route: INTRAPERITONEAL, Dose: 0, 50 UMOL/KG BW 2X/WK FOR 10 WK BEGINNING AT 3 D OF AGE (STUDY DURATION: 68 WK), Tumor Site: Type of Lesion: SOFT TISSUE: TUMOR) was “active; positive”.

`CN(C)c1ccc(N=Nc2ccccc2)cc1`: the carcinogen call by setting is: (Species: DOG, Route: ORAL, Tumor Site: Type of Lesion: URINARY BLADDER) “active; positive”; (Species: MOUSE, Route: SUBCUTANEOUS, Tumor Site: Type of Lesion: LIVER, INJECTION SITE) “active; positive”; (Species: MOUSE, Strain/Sex: B6C3F1/FEMALE, Route: INTRAPERITONEAL, Dose: 0, 0.3 UMOL/G IN TRIOCTANOIN ONCE ON DAY 1 FOLLOWED BY 0.4 UMOL/G ONCE ON DAY 8, 15 AND 22 (STUDY DURATION: 10 MO)) “inactive; negative”; (Species: MOUSE, Strain/Sex: B6C3F1/MALE, Route: INTRAPERITONEAL, Dose: 0, 0.017, 0.05, 0.15, 0.45 UMOL/G ONCE IN TRIOCTANOIN (STUDY DURATION: 10 MO), Dose: 0, 0.017, 0.05, 0.15, 0.45 UMOL/G ONCE IN TRIOCTANOIN (STUDY DURATION: 10 MO), Tumor Site: Type of Lesion: LIVER: HEPATOMA) “active; positive”; (Species: MOUSE, Strain/Sex: B6C3F1/MALE, Route: INTRAPERITONEAL, Dose: 0, 0.3 UMOL/G IN TRIOCTANOIN ONCE ON DAY 1 FOLLOWED BY 0.4 UMOL/G ONCE ON DAY 8, 15 AND 22 (STUDY DURATION: 10 MO), Tumor Site: Type of Lesion: LIVER: HEPATOMA) “active; positive”; (Species: RAT, Route: ORAL, Tumor Site: Type of Lesion: LIVER) “active; positive”. In addition, under “Species: RAT, Strain/Sex: F344/MALE, Route: INTRAPERITONEAL, Dose: 0, 0.3 UMOL/G IN TRIOCTANOIN ONCE ON DAY 1 FOLLOWED BY 0.4 UMOL/G ONCE ON DAY 8, 15 AND 22 (STUDY DURATION: 10 MO)”, the carcinogen call is “inactive; negative”.
